For orientation: inhibition means how much of the control response was suppressed.

The source made the active and inactive calls. The rule behind the calls is not given here.

In series [1] the target is NACHT, LRR and PYD domains-containing protein 3 (Mus musculus) (UniProt Q8R4B8). In words: Inhibition of NLRP3 inflammasome activation in LPS/ATP-induced C57BL/6 mouse BMDMs assessed as reduction in IL-1beta secretion at 100 nM preincubated with LPS for 4 hrs followed by compound addition for 30 mins and further stimulated with ATP for 30 mins by ELISA relative to control. It counts as cell-based. The settings on record: BMDM, time 1.0 hrs. (An ELISA detects its analyte on a solid surface through an enzyme-linked reagent.)
NACHT, LRR and PYD domains-containing protein 3 (Mus musculus), sequence (Q8R4B8 whole entry, the tested form may be a part): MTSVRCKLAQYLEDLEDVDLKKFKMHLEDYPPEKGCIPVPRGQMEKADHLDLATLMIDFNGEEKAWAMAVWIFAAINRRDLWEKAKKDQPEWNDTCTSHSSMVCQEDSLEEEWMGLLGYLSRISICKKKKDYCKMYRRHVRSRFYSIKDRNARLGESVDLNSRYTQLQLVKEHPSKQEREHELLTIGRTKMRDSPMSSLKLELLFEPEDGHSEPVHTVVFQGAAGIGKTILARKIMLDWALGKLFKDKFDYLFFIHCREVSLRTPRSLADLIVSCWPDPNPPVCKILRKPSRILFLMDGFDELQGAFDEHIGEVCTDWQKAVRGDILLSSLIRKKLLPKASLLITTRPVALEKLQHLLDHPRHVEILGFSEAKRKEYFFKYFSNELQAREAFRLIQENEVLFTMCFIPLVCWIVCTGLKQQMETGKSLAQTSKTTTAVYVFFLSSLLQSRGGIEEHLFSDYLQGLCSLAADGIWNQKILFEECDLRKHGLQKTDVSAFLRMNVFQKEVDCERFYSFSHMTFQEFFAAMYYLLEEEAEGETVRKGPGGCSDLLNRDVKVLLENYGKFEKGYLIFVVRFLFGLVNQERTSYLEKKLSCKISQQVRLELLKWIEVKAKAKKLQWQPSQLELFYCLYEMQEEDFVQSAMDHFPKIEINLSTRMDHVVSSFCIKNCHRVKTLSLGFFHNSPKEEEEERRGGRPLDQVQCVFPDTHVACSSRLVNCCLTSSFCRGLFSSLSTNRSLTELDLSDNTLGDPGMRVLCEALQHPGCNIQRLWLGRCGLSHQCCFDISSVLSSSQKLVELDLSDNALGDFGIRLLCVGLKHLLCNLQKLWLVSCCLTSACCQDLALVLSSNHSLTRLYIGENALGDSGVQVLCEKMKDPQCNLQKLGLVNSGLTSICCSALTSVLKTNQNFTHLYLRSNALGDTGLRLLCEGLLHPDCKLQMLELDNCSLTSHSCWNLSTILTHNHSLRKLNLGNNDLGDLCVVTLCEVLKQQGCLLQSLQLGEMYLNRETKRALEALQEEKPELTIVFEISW

For series [2] the target is unchanged. In words: Inhibition of NLRP3 inflammasome activation in LPS/ATP-induced C57BL/6 mouse BMDMs assessed as reduction in maturation of pro-caspase-1 preincubated with LPS for 4 hrs followed by compound addition for 30 mins and further stimulated with ATP for 30 mins by ELISA. As to conditions: BMDM, time 1.0 hrs. It counts as cell-based.
Series [3] has the same target. In words: Inhibition of NLRP3 inflammasome activation in LPS-induced C57BL/6 mouse BMDMs assessed as reduction in NLRP3 mRNA level at 50 to 200 nM preincubated for 24 hrs followed by LPS addition for 4 hrs by qRT-PCR analysis. It is filed as cell-based. As to conditions: BMDM, dose 50-200 nM, time 28.0 hrs.
Series [4] shares this target. In words: Inhibition of NLRP3 inflammasome activation in LPS/ATP-induced C57BL/6 mouse BMDMs assessed as inhibition of ASC oligomerization by measuring reduction in ASC expression at 50 to 200 nM preincubated with LPS for 4 hrs followed by compound addition for 30 mins and further stimulated with ATP for 30 mins by Western blotting analysis. As to conditions: BMDM, dose 50-200 nM, time 1.0 hrs. It counts as cell-based.

Series [5] is described as follows: Oral bioavailability in ICR mouse at 10 mg/kg measured upto 24 hrs by LC-MS/MS method. It is filed as ADME, organism-based. As to conditions: in vivo, po, 10 mg/kg, 24 h.

In the case of `C=C1C(=O)[C@]23[C@H](O)[C@H]1CC[C@H]2[C@]12C=CCC(C)(C)[C@H]1[C@H](O)[C@@]3(OCCC(=O)O)OC2`, the inhibition in series [1] was 64.3%; in series [2] it was “Dose-Dependent Effect”. For the same compound, the inhibition result in series [3] and in series [4] was “inactive” in each case. The F in series [5] stood at 9%.

These data come from ChEMBL document CHEMBL5506055, “Hit-to-Lead Optimization of the Natural Product Oridonin as Novel NLRP3 Inflammasome Inhibitors with Potent Anti-Inflammation Activity” (J Med Chem, 2024).
